Reference: patent US20050070511A1, “2-methylene-19-nor-vitamin D2 compounds” (Wisconsin Alumni Research Foundation, priority 2003, published 2005)

Legend:
[1] = target: T1, vitamin D pig intestinal nuclear receptor (Sus scrofa, UniProt A3RGC1); assay: Competitive binding of [3H]-1α,25-(OH)2-D3 to the porcine intestinal vitamin D receptor; settings: FIG. 1, in words
T1 construct: the vitamin D pig intestinal nuclear receptor; from tissue; host or cells: pig intestine (nuclear receptor preparation)
T1 sequence (A3RGC1 1-427): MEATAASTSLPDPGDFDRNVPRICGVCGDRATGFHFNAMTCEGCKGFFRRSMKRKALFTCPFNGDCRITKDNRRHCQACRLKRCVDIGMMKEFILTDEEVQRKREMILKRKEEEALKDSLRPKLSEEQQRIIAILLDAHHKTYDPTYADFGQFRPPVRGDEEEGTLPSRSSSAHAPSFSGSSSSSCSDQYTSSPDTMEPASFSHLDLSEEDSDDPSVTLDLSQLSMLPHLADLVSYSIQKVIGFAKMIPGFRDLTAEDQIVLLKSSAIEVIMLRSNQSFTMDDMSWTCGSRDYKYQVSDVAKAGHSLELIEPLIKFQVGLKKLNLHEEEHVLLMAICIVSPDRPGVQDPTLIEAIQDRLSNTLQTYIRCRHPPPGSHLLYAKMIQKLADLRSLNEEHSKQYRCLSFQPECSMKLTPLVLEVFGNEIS
Procedure: FIG. 1 is a graph illustrating the relative activity of 2-methylene-19-nor-24(S)-20(R)-1α,25-dihydroxyvitamin D2, 2-methylene-19-nor-24(R)-20(R)-1α,25-dihydroxyvitamin D2 and 1α,25-dihydroxyvitamin D3 to compete for binding of [^3H]-1α,25-(OH)2-D3 to the vitamin D pig intestinal nuclear receptor.
Competitive binding of the analogs to the porcine intestinal receptor was carried out by the method described by Dame et al. (Biochemistry 25, 4523-4534, 1986).

[2] = test system: Male, weanling Sprague-Dawley rats; assay: Serum calcium (bone calcium mobilization) in vitamin D-deficient rats; format: in vivo, rat; settings: for Mobilization of calcium from bone compared with 1α,25-dihydroxyvitamin D3: FIG. 4, in words; for Serum Calcium (bone calcium mobilization): rats on low Ca diet, i.p. daily, average ± SE from 5 animals
Procedure: (§1) Male, weanling Sprague-Dawley rats were placed on Diet 11 (0.47% Ca)+AEK for 11 days, followed by Diet 11 (0.02% Ca)+AEK for 31 days. Dosing (i.p.) began 7 days prior to sacrifice. Doses were given on a daily basis, 24 hours apart. The first 10 cm of the intestine was collected for gut transport studies and serum was collected for bone Ca mobilization analysis. The results are reported in TABLE 1 and illustrated in the graph of FIGS. 3 and 4.
The in vivo tests of serum calcium of rats on a zero calcium diet provides an insight into […] or bone activity of the 2-methylene-24(S) and 24(R) derivatives of 19-nor-1α,25-dihydroxyvitamin D2. […] At the same time, the activity of the 2-methylene-24(S) and 24(R) derivatives of 19-nor-1α,25-dihydroxyvitamin D2 on intestinal calcium transport is approximately equal to that of 1,25-(OH)2D3 (FIG. 3).

[3] = test system: Male, weanling Sprague-Dawley rats; assay: Intestinal calcium transport in vitamin D-deficient rats; format: in vivo, rat; settings: for Activity in stimulating intestinal calcium transport compared with 1α,25-dihydroxyvitamin D3: FIG. 3, in words; for Intestinal Calcium Transport (S/M): rats on low Ca diet, i.p. daily, average ± SE from 5 animals
Procedure: as §1

HL-60 cells = assay: Differentiation of HL-60 promyelocytes into monocytes; format: cell-based; settings: FIG. 2, in words
Procedure: FIG. 2 is a graph illustrating the percent HL-60 cell differentiation as a function of the concentration of 2-methylene-19-nor-24(S)-20(R)-1α,25-dihydroxyvitamin D2, 2-methylene-19-nor-24(R)-20(R)-1α,25-dihydroxyvitamin D2, and 1α,25-dihydroxyvitamin D3.
The differentiation of HL-60 promyelocytic into monocytes was determined as described by Ostrem et al. (J. Biol. Chem. 262, 14164-14171, 1987).

Row | SMILES | Binding to the vitamin D receptor compared with 1,25(OH)2D3 [1] | Mobilization of calcium from bone compared with 1α,25-dihydroxyvitamin D3 [2] | Serum Calcium (bone calcium mobilization) ([2]; 130 pmol/day/7 days) | Serum Calcium (bone calcium mobilization) ([2]; 260 pmol/day/7 days) | Activity in stimulating intestinal calcium transport compared with 1α,25-dihydroxyvitamin D3 [3] | Intestinal Calcium Transport (S/M) ([3]; 130 pmol/day/7 days) | Intestinal Calcium Transport (S/M) ([3]; 260 pmol/day/7 days) | HL-60 differentiation potency compared with 1,25(OH)2D3 (HL-60 cells)
1 | C=C1[C@H](O)CC(=C/C=C2\CCC[C@@]3(C)C2CCC3[C@H](C)/C=C/[C@H](C)C(C)(C)O)C[C@H]1O (stereo partly drawn) [(20R,24S)D2, (20R,24S)-1α,25-dihydroxy-2-methylene-19-nor-vitamin D2] | more active than 1,25(OH)2D3 | minimal activity on bone | 4.7 ± 0.13 mg/100 mL | 5.04 ± 0.14 mg/100 mL | activity about the same as that of 1α,25-dihydroxyvitamin D3 | 11.62 ± 0.69 S/M | 11.14 ± 0.74 S/M | significantly more potent than 1,25(OH)2D3
2 | C=C1[C@H](O)CC(=C/C=C2\CCC[C@@]3(C)C2CCC3[C@H](C)/C=C/[C@@H](C)C(C)(C)O)C[C@H]1O (stereo partly drawn) [(20R,24R)D2, (20R,24R)-1α,25-dihydroxy-2-methylene-19-nor-vitamin D2] | more active than 1,25(OH)2D3 | minimal activity on bone | 4.5 ± 0.05 mg/100 mL | 5.02 ± 0.14 mg/100 mL | activity about the same as that of 1α,25-dihydroxyvitamin D3 | 12.2 ± 1.22 S/M | 11.58 ± 0.66 S/M | significantly more potent than 1,25(OH)2D3
3 | C=C1/C(=C\C=C2/CCC[C@]3(C)[C@@H]([C@H](C)CCCC(C)(C)O)CC[C@@H]23)C[C@@H](O)C[C@@H]1O [1,25-(OH)2D3, 1α,25-dihydroxyvitamin D3, reference compound] |  |  |  | 5.72 ± 0.14 mg/100 mL |  |  | 12.54 ± 1.83 S/M | 
